In patent US20260294915A1, “COMBINATION THERAPY COMPRISING A MAT2A INHIBITOR AND A TOPOISOMERASE INHIBITOR, A SPLICING INHIBITOR SULFONAMIDE, OR A KIF18 INHIBITOR” (IDEAYA BIOSCIENCES, INC., priority 2023, published 2026):

How the values were obtained:
Format in all cases: cell-based
[1] = tested on: UMUC11; assay: 10-day proliferation (CTG), Compound B titration + 1000 nM Compound A, Bliss (Example 2); design: key: GDI, -100 to 100; 0 = cell number at T0
Protocol: (§1) A 10-day proliferation assay was performed in a panel of 5 MTAP-deficient and 2 wild type non-small cell lung and bladder cancer cell lines. Optimal cell seeding for all cell lines was determined by assessing the growth over a range of seeding densities in a 384-well format to identify conditions that permitted proliferation for 10 days. Cells were then plated at the optimal seeding density and treated with 20-point, two-fold dilution series of Compound B in combination with a 1000 nM fixed concentration of Compound A. Single agent titrations for Compound A and Compound B were included for comparison. Concentrations tested for Compound A and Compound B alone or in combination ranged from 0.038 nM to 20,000 nM. A plate of cells was harvested at the time of compound addition to quantify the number of cells at the start of the combination (T0). For cell quantification, the harvested cells were lysed with Promega CellTiter-Glo (CTG) reagent according to the manufacturer's protocol and the chemiluminescent signal was detected as described in Example 1 above. Cells were incubated with the drug combinations at 37° C. with 5% CO2 for 10 days. Cells were then lysed with CTG and the chemiluminescent signal was measured.
(§2) CTG values obtained after the 10-day treatment were background subtracted and expressed as a percent of the T0 value set at 100%. Data were plotted against compound concentration and fit with a four-parameter equation to generate single agent dose response curves. Percent inhibition was determined for each combination and single agent concentration compared to a DMSO control. In addition, the overall net growth or death of the cells was calculated and reported as a growth death index (GDI) value on a scale of −100 to 100 with the midpoint (0) being the number of cells at the beginning of the combination (T0).
(§3) Predicted inhibition was calculated using (Ea+Eb)−(Ea*Eb) where E equals the effect (inhibition) of each single agent (a and b). A difference between the observed inhibition percentage and the predicted inhibition percentage greater than 10% was considered synergistic. A Bliss score was only calculated for combinations eliciting >20% growth inhibition (GDI value <80). Since Bliss is calculated based on growth inhibition, scores within cytotoxic dose ranges may not accurately reflect synergistic cytotoxicity.
(§4) Synergy was measured across the Compound B titration with 1000 nM Compound A by Bliss Independence analysis. Bliss scores >10 are indicated by “*” and are considered synergistic. […] Synergy as reported using Bliss may be underrepresented within cytotoxic dose ranges. Growth death index values are shown for the combination titration and each single agent Compound A (Cmpd A) and Compound B (Cmpd B) on a scale of −100 to 100 with the midpoint (0) being the number of cells at the beginning of the combination (T0).

[2] = tested on: RT112/84; assay: as above; design: key: GDI, -100 to 100; 0 = cell number at T0
Protocol: as §1, §2, §3, §4

[3] = tested on: NCI-H838; assay: as above; design: key: GDI, -100 to 100; 0 = cell number at T0
Protocol: as §1, §2, §3, §4

[4] = tested on: SW900; assay: 10-day proliferation (CTG), equimolar Compound A + Compound B (Example 1); settings: Homo sapiens, SW900, 240 h, 10 days, single agent or 1:1 combo; for IC30: read-out: gIC30; for IC40: read-out: gIC40; for IC50: read-out: gIC50; for IC60: read-out: gIC60; for IC70: read-out: gIC70; for IC80: read-out: gIC80; for IC90: read-out: gIC90; for IC100: read-out: gIC100
Protocol: (§5) A 10-day proliferation assay was performed in a panel of 5 MTAP-deficient and 2 wild type non-small cell lung and bladder cancer cell lines. Optimal cell seeding for all cell lines was determined by assessing the growth over a range of seeding densities in a 384-well format to identify conditions that permitted proliferation for 10 days. Cells were then plated at the optimal seeding density and treated with 20-point, two-fold dilution series of Compound A, sovilnesib (“Compound B”), or an equimolar combination of Compound A and Compound B. Concentrations tested for Compound A and Compound B alone or in combination ranged from 0.038 nM to 20,000 nM. A plate of cells was harvested at the time of compound addition to quantify the number of cells at the start of the combination (T0). For cell quantification, the harvested cells were lysed with Promega CellTiter-Glo (CTG) reagent according to the manufacturer's protocol and the chemiluminescent signal was detected on a Synergy Neo plate reader. CTG estimates cell number through detection of cellular ATP levels. Cells were incubated with the drug combinations at 37° C. with 5% CO2 for 10 days. Cells were then lysed with CTG and the chemiluminescent signal was measured.
(§6) CTG values obtained after the 10-day treatment were background subtracted and expressed as a percent of the T0 value. Data were plotted against compound concentration and fit with a four-parameter equation to generate dose response curves for each single agent and the equimolar combination. Growth ICx (gICx) values ranging from gIC30 to gIC100 were interpolated from the fitted curves. Synergistic growth inhibition was assessed by determination of Combination Index (CI) values at these various points across the titration using the mutually non-exclusive equation [Chou, 1983; Chou, 1981] shown below where A equals the gIC value of Compound A, B equals the gICx value of Compound B, and A+B or B+A equals the gICx value of the equimolar combination. A Combination Index value less than 1.0 was considered synergistic.
(§7) Synergy was measured for equimolar combinations of Compound A and Compound B utilizing the mutually non-exclusive Combination Index equation across gICx values ranging from gIC30-gIC100. Combination Index values are shown for: NCI-H838 (3A), SW900 (3B), RT112/84 (3C), UMUC5 (3D), and UMUC11 (3E).

[5] = tested on: RT112/84; assay: as above; settings: Homo sapiens, RT112/84, 240 h, 10 days, single agent or 1:1 combo; for IC30: read-out: gIC30; for IC40: read-out: gIC40; for IC50: read-out: gIC50; for IC60: read-out: gIC60; for IC70: read-out: gIC70; for IC80: read-out: gIC80; for IC90: read-out: gIC90; for IC100: read-out: gIC100
Protocol: as §5, §6, §7

[6] = Cmpd B 0.04 nM, combo: + 1000 nM Cmpd A
[7] = Cmpd B 0.1 nM, combo: + 1000 nM Cmpd A
[8] = Cmpd B 0.2 nM, combo: + 1000 nM Cmpd A
[9] = Cmpd B 0.3 nM, combo: + 1000 nM Cmpd A
[10] = Cmpd B 0.6 nM, combo: + 1000 nM Cmpd A
[11] = Cmpd B 1.2 nM, combo: + 1000 nM Cmpd A
[12] = Cmpd B 2.4 nM, combo: + 1000 nM Cmpd A
[13] = Cmpd B 4.9 nM, combo: + 1000 nM Cmpd A
[14] = Cmpd B 9.8 nM, combo: + 1000 nM Cmpd A
[15] = Cmpd B 19.5 nM, combo: + 1000 nM Cmpd A
[16] = Cmpd B 39.1 nM, combo: + 1000 nM Cmpd A
[17] = Cmpd B 78.1 nM, combo: + 1000 nM Cmpd A
[18] = Cmpd B 156.3 nM, combo: + 1000 nM Cmpd A
[19] = Cmpd B 312.5 nM, combo: + 1000 nM Cmpd A
[20] = Cmpd B 625 nM, combo: + 1000 nM Cmpd A
[21] = Cmpd B 1250 nM, combo: + 1000 nM Cmpd A
[22] = Cmpd B 2500 nM, combo: + 1000 nM Cmpd A
[23] = Cmpd B 5000 nM, combo: + 1000 nM Cmpd A
[24] = Cmpd B 10000 nM, combo: + 1000 nM Cmpd A
[25] = Cmpd B 20000 nM, combo: + 1000 nM Cmpd A

Nc1nc(=O)n(-c2ccccc2Cl)c2nc(C(F)(F)F)ccc12 [Compound A]
GDI ([1]; single agent, 1000 nM Cmpd A): 92
GDI ([2]; single agent, 1000 nM Cmpd A): 60
GDI ([3]; single agent, 1000 nM Cmpd A): 52
IC30 [4]: 20 µM
IC40 [4]: 20 µM
IC50 [4]: 20 µM
IC60 [4]: 20 µM
IC70 [4]: 20 µM
IC80 [4]: 20 µM
IC90 [4]: 20 µM
IC100 [4]: 20 µM
IC30 [5]: 0.277 µM
IC40 [5]: 0.854 µM
IC50 [5]: 3 µM
IC60 [5]: 16 µM
IC70 [5]: 20 µM
IC80 [5]: 20 µM
IC90 [5]: 20 µM
IC100 [5]: 20 µM

Cc1cc(NC(=O)c2ccc(NS(=O)(=O)CCO)cc2N2CCC3(CC2)CC3)nc(N2CCC(F)(F)CC2)n1 [Compound B, N-(2-(4,4-difluoropiperidin-1-yl)-6-methylpyrimidin-4-yl)-4-((2-hydroxyethyl)sulfonamido)-2-(6-azaspiro[2.5]octan-6-yl)benzamide]
GDI [1, 6]: 100
GDI [1, 7]: 100
GDI [1, 8]: 100
GDI [1, 9]: 100
GDI [1, 10]: 100
GDI [1, 11]: 100
GDI [1, 12]: 100
GDI [1, 13]: 100
GDI [1, 14]: 100
GDI [1, 15]: 100
GDI [1, 16]: 100
GDI [1, 17]: 100
GDI [1, 18]: 100
GDI [1, 19]: 87
GDI [1, 20]: 72
GDI [1, 21]: 70
GDI [1, 22]: 74
GDI [1, 23]: 63
GDI [1, 24]: 32
GDI [1, 25]: −88
GDI [2, 6]: 100
GDI [2, 7]: 100
GDI [2, 8]: 100
GDI [2, 9]: 100
GDI [2, 10]: 100
GDI [2, 11]: 100
GDI [2, 12]: 100
GDI [2, 13]: 100
GDI [2, 14]: 100
GDI [2, 15]: 100
GDI [2, 16]: 100
GDI [2, 17]: 100
GDI [2, 18]: 63
GDI [2, 19]: 30
GDI [2, 20]: 24
GDI [2, 21]: 31
GDI [2, 22]: 31
GDI [2, 23]: 33
GDI [2, 24]: 2
GDI [2, 25]: −86
GDI [3, 6]: 100
GDI [3, 7]: 100
GDI [3, 8]: 100
GDI [3, 9]: 100
GDI [3, 10]: 100
GDI [3, 11]: 100
GDI [3, 12]: 100
GDI [3, 13]: 100
GDI [3, 14]: 100
GDI [3, 15]: 100
GDI [3, 16]: 100
GDI [3, 17]: 100
GDI [3, 18]: 74
GDI [3, 19]: 65
GDI [3, 20]: 55
GDI [3, 21]: 48
GDI [3, 22]: 58
GDI [3, 23]: 87
GDI [3, 24]: 61
GDI [3, 25]: −1
IC30 [4]: 5.48 µM
IC40 [4]: 8.55 µM
IC50 [4]: 12.3 µM
IC60 [4]: 16.6 µM
IC70 [4]: 19.9 µM
IC80 [4]: 20 µM
IC90 [4]: 20 µM
IC100 [4]: 20 µM
IC30 [5]: 0.15 µM
IC40 [5]: 0.17 µM
IC50 [5]: 0.192 µM
IC60 [5]: 0.222 µM
IC70 [5]: 0.273 µM
IC80 [5]: 10.3 µM
IC90 [5]: 20 µM
IC100 [5]: 20 µM
